The supplement of paper PMC10307832

What was measured:
Test in all cases: relative viability (nuclei count vs DMSO), 5 days (fraction); higher = more cells survive
[1] = compound: C1=CC2=NC=CN=C2C=C1/C=C/3\C(=O)NC(=O)S3 + COc1cc2c(Oc3ccc(NC(=O)C4(C(=O)Nc5ccc(F)cc5)CC4)cc3F)ccnc2cc1OCCCN1CCOCC1 [Foretinib] (partner 0.25 µM)
In short: (§1)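 Lung cancer cell lines, seeded in 1536-well plates, were treated the following day by pin tool with a single drug or with five library-drug doses (not always all listed) in √10 steps on top of a fixed anchor-drug dose. Cells were fixed and nuclei stained in one step after 5 days, and nuclei were counted. Relative viability is the nuclei count for treated wells divided by that for vehicle wells, reported as medians of duplicate plates.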

[2] = compound: CCN1CCN(c2ccc(Nc3cc(N(C)C(=O)Nc4c(Cl)c(OC)cc(OC)c4Cl)ncn3)cc2)CC1 [BGJ398] + COc1cccc2cc(-c3nc([C@H]4CC[C@H](C(=O)O)CC4)n4ncnc(N)c34)[nH]c12 [OSI-027] (partner 0.5 µM)
In short: as §1

[3] = compound: CCN1CCN(c2ccc(Nc3cc(N(C)C(=O)Nc4c(Cl)c(OC)cc(OC)c4Cl)ncn3)cc2)CC1 [BGJ398] + CS(=O)(=O)CCNCc1ccc(-c2ccc3ncnc(Nc4ccc(OCc5cccc(F)c5)c(Cl)c4)c3c2)o1 [Lapatinib] (partner 2 µM)
In short: as §1

[4] = compound: CCN1CCN(c2ccc(Nc3cc(N(C)C(=O)Nc4c(Cl)c(OC)cc(OC)c4Cl)ncn3)cc2)CC1 [BGJ398] + Nc1nc2[nH]cc(CCc3ccc(C(=O)N[C@@H](CCC(=O)O)C(=O)O)cc3)c2c(=O)[nH]1 [Pemetrexed] (partner 0.2 µM)
In short: as §1

Row | Cell Line | relative viability ([1]; first compound 0.02 µM) | relative viability ([1]; first compound 0.06325 µM) | relative viability ([1]; first compound 0.2 µM) | relative viability ([1]; first compound 0.6325 µM) | relative viability ([1]; first compound 2 µM) | relative viability ([2]; first compound 0.01 µM) | relative viability ([2]; first compound 0.03162 µM) | relative viability ([2]; first compound 0.1 µM) | relative viability ([2]; first compound 0.3162 µM) | relative viability ([2]; first compound 1 µM) | relative viability ([3]; first compound 0.01 µM) | relative viability ([3]; first compound 0.03162 µM) | relative viability ([3]; first compound 0.1 µM) | relative viability ([3]; first compound 0.3162 µM) | relative viability ([3]; first compound 1 µM) | relative viability ([4]; first compound 0.01 µM) | relative viability ([4]; first compound 0.03162 µM) | relative viability ([4]; first compound 0.1 µM) | relative viability ([4]; first compound 0.3162 µM) | relative viability ([4]; first compound 1 µM)
1 | LXF-289 | 0.925 | 0.92 | 0.953 | 0.982 | 0.908 | 0.708 | 0.795 | 0.806 | 0.768 | 0.799 | 0.827 | 0.85 | 0.817 | 0.77 | 0.7 | 0.923 | 0.849 | 0.88 | 0.801 | 0.923
2 | NCI-H23 | 1.12 | 0.976 | 1.02 | 0.902 | 0.856 | 0.588 | 0.726 | 0.692 | 0.518 | 0.569 | 1.02 | 1.06 | 1.3 | 0.99 | 1.07 | 0.735 | 0.652 | 0.528 | 0.715 | 0.541
3 | NCI-H322M | 0.969 | 0.918 | 0.932 | 0.906 | 0.669 | 0.531 | 0.542 | 0.627 | 0.495 | 0.501 | 0.675 | 0.561 | 0.551 | 0.581 | 0.58 | 0.662 | 0.635 | 0.637 | 0.603 | 0.631
4 | NCI-H358 | 0.875 | 0.648 | 0.672 | 0.613 | 0.445 | 0.611 | 0.793 | 0.81 | 0.798 | 1 | 0.452 | 0.43 | 0.442 | 0.386 | 0.519 | 0.173 | 0.167 | 0.199 | 0.17 | 0.188
5 | NCI-H460 | 0.936 | 0.833 | 1.03 | 0.953 | 1 | 0.63 | 0.733 | 0.81 | 0.642 | 0.719 | 1.02 | 1.05 | 1.6 | 1 | 1.23 | 0.0621 | 0.0761 | 0.0595 | 0.0608 | 0.0687
6 | NCI-H520 | 0.71 | 0.719 | 0.846 | 0.674 | 0.648 | 0.198 | 0.243 | 0.183 | 0.147 | 0.176 | 0.747 | 0.722 | 0.661 | 0.339 | 0.281 | 0.691 | 0.532 | 0.531 | 0.341 | 0.311
7 | NCI-H596 | 0.856 | 0.863 | 1.05 | 0.742 | 0.899 | 0.761 | 0.693 | 0.655 | 0.648 | 0.621 | 1.16 | 0.937 | 0.974 | 0.824 | 0.496 | 0.424 | 0.476 | 0.439 | 0.477 | 0.431
8 | NCI-H647 | 1.1 | 1.39 | 1.17 | 1.11 | 1.21 | 0.554 | 0.765 | 0.724 | 0.638 | 0.536 | 1.03 | 1.11 | 1.21 | 0.949 | 1.06 | 0.179 | 0.16 | 0.19 | 0.201 | 0.185
9 | NCI-H650 | 1.01 | 1.09 | 1.04 | 1.08 | 0.711 | 0.477 | 0.519 | 0.535 | 0.505 | 0.503 | 0.809 | 0.906 | 0.837 | 0.841 | 0.597 | 0.988 | 0.931 | 0.995 | 0.956 | 0.974
10 | NCI-H661 | 1 | 1.05 | 1.07 | 0.957 | 1.08 | 0.618 | 0.723 | 0.766 | 0.752 | 0.742 | 0.501 | 0.595 | 0.473 | 0.457 | 0.49 | 0.912 | 0.877 | 0.961 | 0.977 | 0.912
11 | NCI-H838 | 1.02 | 1.08 | 1 | 1.02 | 0.874 | 0.297 | 0.357 | 0.376 | 0.338 | 0.294 | 0.755 | 0.867 | 0.914 | 0.623 | 0.413 | 0.227 | 0.243 | 0.217 | 0.237 | 0.23
12 | NCI-H1355 | 0.816 | 0.976 | 1.02 | 0.936 | 0.929 | 0.356 | 0.408 | 0.428 | 0.413 | 0.315 | 0.936 | 1.05 | 1.01 | 0.95 | 0.644 | 0.981 | 1.01 | 1.06 | 1.03 | 0.945
13 | NCI-H1395 | 1.04 | 1.03 | 1 | 0.871 | 1.03 | 0.621 | 0.649 | 0.551 | 0.448 | 0.497 | 1.1 | 1.75 | 0.823 | 0.569 | 0.476 | 0.827 | 0.82 | 0.77 | 0.559 | 0.524
14 | NCI-H1437 | 1.19 | 1.24 | 1.16 | 1.25 | 1.15 | 0.807 | 0.867 | 0.873 | 0.865 | 0.926 | 0.829 | 0.762 | 0.905 | 0.729 | 0.644 | 0.322 | 0.309 | 0.296 | 0.321 | 0.298
15 | NCI-H1563 | 0.901 | 0.979 | 0.914 | 0.895 | 0.943 | 0.703 | 0.788 | 0.785 | 0.672 | 0.665 | 0.926 | 1.01 | 0.761 | 0.721 | 0.669 | 0.749 | 0.968 | 0.754 | 0.58 | 0.433
